Measured values: patent US8609666B2, “2-morpholino-pyrido[3,2-D]pyrimidines” (Merck Serono SA, priority 2009, dated 2013)

tested on: Human recombinant GST-PI3K; experiment: PI3K induced-lipid phosphorylation scintillation proximity assay (neomycin-coated SPA beads); format: biochemical; conditions: amount necessary to achieve 50% inhibition of PI3K; 120 min at room temperature
From the text: The efficacy of compounds of the invention in inhibiting the PI3K induced-lipid phosphorylation may be tested in the following binding assay. The assay combines the scintillation proximity assay technology (SPA, Amersham) with the capacity of neomycin (a polycationic antibiotic) to bind phospholipids with high affinity and specificity. The Scintillation Proximity Assay is based on the properties of weakly emitting isotopes (such as ^3H, ^125I, ^33P). Coating SPA beads with neomycin allows the detection of phosphorylated lipid substrates after incubation with recombinant PI3K and radioactive ATP in the same well, by capturing the radioactive phospholipids to the SPA beads through their specific binding to neomycin. To a 96 wells MTP containing 10 μl of the test compound of Formula (I) (solubilized in 10% DMSO; to yield a concentration of 100, 25, 5.0, 1.25, 0.312, 0.078, 0.0195, 0.00488, 0.00122 and 0.0003 μM of the test compound), the following assay components are added: 1) 10 μL of lipid micelles 2) […] of Kinase buffer ([^33P]γATP162 μM/300 nCi, MgCl2 2.5 mM, DTT 2.5 mM, Na3VO4 25 μM in Hepes 40 mM, pH 7.4) and 3) 10 μL (100 ng) of Human recombinant GST-PI3K (in Hepes 40 mM, pH 7.4, ethylenglycol 4%). After incubation at room temperature for 120 minutes, with gentle agitation, the reaction is stopped by addition of 200 μL of a solution containing 250 μg of neomycin-coated PVT SPA beads, ATP 60 mM and EDTA 6.2 mM in PBS. The assay is further incubated at room temperature for 60 minutes with gentle agitation to allow binding of phospholipids to neomycin-SPA beads. After precipitation of the neomycin-coated PVT SPA beads for 5 minutes at 1500×g, radioactive PtdIns(3)P is quantified by scintillation counting in a Wallac MicroBeta™ plate counter. The values indicated in Table I below refer to the IC50 (μM) with respect to PI3K, i.e. the amount necessary to achieve 50% inhibition of said target. Said values show a considerable inhibitory potency of pyridopyrimidine compounds with regard to PI3K.

| SMILES | IC50 [nM] |
| --- | --- |
| COc1cccc(-c2nc(N3CCOCC3)nc3c(Cl)cc(C(=O)O)nc23)c1 [Example 1, 8-Chloro-4-(3-methoxyphenyl)-2-morpholin-4-ylpyrido[3,2-d]pyrimidine-6-carboxylic acid] | 1080 |
| COc1cccc(-c2nc(N3CCOCC3)nc3ccc(C(=O)O)nc23)c1 [Example 2, 4-(3-Methoxyphenyl)-2-morpholin-4-ylpyrido[3,2-d]pyrimidine-6-carboxylic acid] | 4490 |
| COCCN(C)c1cc(C(=O)O)nc2c(-c3ccc(O)cc3)nc(N3CCOCC3)nc12 [Example 3, 4-(4-hydroxy-phenyl)-8-[(2-methoxy-ethyl)-methyl-amino]-2-morpholin-4-yl-pyrido[3,2-d]pyrimidine-6-carboxylic acid] | 290 |
| CN(C)c1cc(C(=O)O)nc2c(-c3ccc(O)cc3)nc(N3CCOCC3)nc12 [Example 4, 8-Dimethylamino-4-(4-hydroxy-phenyl)-2-morpholin-4-yl-pyrido[3,2-d]pyrimidine-6-carboxylic acid] | 350 |
| COCCNc1cc(C(=O)O)nc2c(-c3ccc(O)cc3)nc(N3CCOCC3)nc12 [Example 5, 4-(4-Hydroxy-phenyl)-8-(2-methoxy-ethylamino)-2-morpholin-4-yl-pyrido[3,2-d]pyrimidine-6-carboxylic acid] | 504 |
| COCCOc1cc(C(=O)O)nc2c(-c3ccc(O)cc3)nc(N3CCOCC3)nc12 [Example 6, 4-(4-Hydroxy-phenyl)-8-(2-methoxy-ethoxy)-2-morpholin-4-yl-pyrido[3,2-d]pyrimidine-6-carboxylic acid] | 2520 |
| O=C(O)c1cc(NCCO)c2nc(N3CCOCC3)nc(-c3ccc(O)cc3)c2n1 [Example 7, 8-(2-Hydroxy-ethylamino)-4-(4-hydroxy-phenyl)-2-morpholin-4-yl-pyrido[3,2-d]pyrimidine-6-carboxylic acid] | 732 |
| O=C(O)c1ccc2nc(N3CCOCC3)nc(-c3ccc(O)cc3)c2n1 [Example 8, 4-(4-Hydroxy-phenyl)-2-morpholin-4-yl-pyrido[3,2-d]pyrimidine-6-carboxylic acid] | 855 |
| CNc1cc(C(=O)O)nc2c(-c3cccc4[nH]ccc34)nc(N3CCOCC3)nc12 [Example 18, 4-(1 H-Indol-4-yl)-8-methylamino-2-morpholin-4-yl-pyrido[3,2-d]pyrimidine-6-carboxylic acid] | 780 |
| COCCN(C)c1cc(C(=O)O)nc2c(-c3ccc(CO)cc3)nc(N3CCOCC3)nc12 [Example 22, 4-(4-Hydroxymethyl-phenyl)-8-[(2-methoxy-ethyl)-methyl-amino]-2-morpholin-4-yl-pyrido[3,2-d]pyrimidine-6-carboxylic acid] | 546 |
| COCc1cccc(-c2nc(N3CCOCC3)nc3c(N(C)C)cc(C(=O)O)nc23)c1 [Example 25, 8-Dimethylamino-4-(3-methoxymethyl-phenyl)-2-morpholin-4-yl-pyrido[3,2-d]pyrimidine-6-carboxylic acid] | 5050 |
| COCCNc1cc(C(=O)O)nc2c(-c3cccc(COC)c3)nc(N3CCOCC3)nc12 [Example 26, 8-(2-Methoxy-ethylamino)-4-(3-methoxymethyl-phenyl)-2-morpholin-4-yl-pyrido[3,2-d]pyrimidine-6-carboxylic acid] | 1830 |
| COCc1cccc(-c2nc(N3CCOCC3)nc3c(N(C)CCO)cc(C(=O)O)nc23)c1 [Example 27, 8-[(2-Hydroxy-ethyl)-methyl-amino]-4-(3-methoxymethyl-phenyl)-2-morpholin-4-yl-pyrido[3,2-d]pyrimidine-6-carboxylic acid] | 1850 |
| COCc1cccc(-c2nc(N3CCOCC3)nc3c(NCCO)cc(C(=O)O)nc23)c1 [Example 28, 8-(2-Hydroxy-ethylamino)-4-(3-methoxymethyl-phenyl)-2-morpholin-4-yl-pyrido[3,2-d]pyrimidine-6-carboxylic acid] | 2490 |
| CNc1cc(C(=O)O)nc2c(-c3cc(F)ccc3O)nc(N3CCOCC3)nc12 [Example 30, 4-(5-Fluoro-2-hydroxyphenyl)-8-(methylamino)-2-morpholin-4-ylpyrido[3,2-d]pyrimidine-6-carboxylic acid] | 304 |

These reach a lower IC50. Values come first.

| IC50 [nM] | SMILES |
| --- | --- |
| 108 | O=C(O)c1cc(Cl)c2nc(N3CCOCC3)nc(-c3cccc(O)c3)c2n1 [Example 9, 8-Chloro-4-(3-hydroxyphenyl)-2-morpholin-4-ylpyrido[3,2-d]pyrimidine-6-carboxylic acid] |
| 28 | COCCN(C)c1cc(C(=O)O)nc2c(-c3cccc(O)c3)nc(N3CCOCC3)nc12 [Example 10, 4-(3-Hydroxy-phenyl)-8-[(2-methoxy-ethyl)-methyl-amino]-2-morpholin-4-yl-pyrido[3,2-d]pyrimidine-6-carboxylic acid] |
| 255 | COCCOc1cc(C(=O)O)nc2c(-c3cccc(O)c3)nc(N3CCOCC3)nc12 [Example 11, 4-(3-Hydroxy-phenyl)-8-(2-methoxy-ethoxy)-2-morpholin-4-yl-pyrido[3,2-d]pyrimidine-6-carboxylic acid] |
| 75 | O=C(O)c1cc(NCCO)c2nc(N3CCOCC3)nc(-c3cccc(O)c3)c2n1 [Example 12, 8-(2-Hydroxy-ethylamino)-4-(3-hydroxy-phenyl)-2-morpholin-4-yl-pyrido[3,2-d]pyrimidine-6-carboxylic acid] |
| 24 | COc1ccccc1-c1cc(C(=O)O)nc2c(-c3cccc(O)c3)nc(N3CCOCC3)nc12 [Example 13, 4-(3-hydroxyphenyl)-8-(2-methoxyphenyl)-2-morpholin-4-ylpyrido[3,2-d]pyrimidine-6-carboxylic acid] |
| 19 | COCCN(C)c1cc(C(=O)O)nc2c(-c3cc(O)cc(F)c3)nc(N3CCOCC3)nc12 [Example 14, 4-(3-Fluoro-5-hydroxy-phenyl)-8-[(2-methoxy-ethyl)-methyl-amino]-2-morpholin-4-yl-pyrido[3,2-d]pyrimidine-6-carboxylic acid] |
| 93 | COCCOc1cc(C(=O)O)nc2c(-c3cc(O)cc(F)c3)nc(N3CCOCC3)nc12 [Example 15, 4-(3-Fluoro-5-hydroxy-phenyl)-8-(2-methoxy-ethoxy)-2-morpholin-4-yl-pyrido[3,2-d]pyrimidine-6-carboxylic acid] |
| 64 | O=C(O)c1cc(NCCO)c2nc(N3CCOCC3)nc(-c3cc(O)cc(F)c3)c2n1 [Example 16, 4-(3-Fluoro-5-hydroxy-phenyl)-8-(2-hydroxy-ethylamino)-2-morpholin-4-yl-pyrido[3,2-d]pyrimidine-6-carboxylic acid] |
| 132 | CN(C)c1cc(C(=O)O)nc2c(-c3cccc4[nH]ccc34)nc(N3CCOCC3)nc12 [Example 17, 8-Dimethylamino-4-(1H-indol-4-yl)-2-morpholin-4-yl-pyrido[3,2-d]pyrimidine-6-carboxylic acid] |
| 128 | COCCNc1cc(C(=O)O)nc2c(-c3cccc4[nH]ccc34)nc(N3CCOCC3)nc12 [Example 19, 4-(1H-Indol-4-yl)-8-(2-methoxy-ethylamino)-2-morpholin-4-yl-pyrido[3,2-d]pyrimidine-6-carboxylic acid] |
| 77 | CN(CCO)c1cc(C(=O)O)nc2c(-c3cccc4[nH]ccc34)nc(N3CCOCC3)nc12 [Example 20, 8-[(2-Hydroxy-ethyl)-methyl-amino]-4-(1H-indol-4-yl)-2-morpholin-4-yl-pyrido[3,2-d]pyrimidine-6-carboxylic acid] |
| 169 | COCCN(C)c1cc(C(=O)O)nc2c(-c3ccc4[nH]ccc4c3)nc(N3CCOCC3)nc12 [Example 21, 4-(1H-Indol-5-yl)-8-[(2-methoxy-ethyl)-methyl-amino]-2-morpholin-4-yl-pyrido[3,2-d]pyrimidine-6-carboxylic acid] |
| 34 | CN(C)c1cc(C(=O)O)nc2c(-c3cccc(CO)c3)nc(N3CCOCC3)nc12 [Example 23, 8-Dimethylamino-4-(3-hydroxymethyl-phenyl)-2-morpholin-4-yl-pyrido[3,2-d]pyrimidine-6-carboxylic acid] |
| 74 | CN(CCO)c1cc(C(=O)O)nc2c(-c3cccc(CO)c3)nc(N3CCOCC3)nc12 [Example 24, 8-[(2-Hydroxy-ethyl)-methyl-amino]-4-(3-hydroxymethyl-phenyl)-2-morpholin-4-yl-pyrido[3,2-d]pyrimidine-6-carboxylic acid] |
| 66 | CN(C)c1cc(C(=O)O)nc2c(-c3cc(F)ccc3O)nc(N3CCOCC3)nc12 [Example 29, 8-(Dimethylamino)-4-(5-fluoro-2-hydroxyphenyl)-2-morpholin-4-ylpyrido[3,2-d]pyrimidine-6-carboxylic acid] |
| 73 | COCCNc1cc(C(=O)O)nc2c(-c3cc(F)ccc3O)nc(N3CCOCC3)nc12 [Example 31, 4-(5-Fluoro-2-hydroxyphenyl)-8-[(2-methoxyethyl)amino]-2-morpholin-4-ylpyrido[3,2-d]pyrimidine-6-carboxylic acid] |
